Our source for the Inhibition type, IC50 and Ki values is article PMC10694853, “Bio-guided isolation of alpha-glucosidase inhibitory compounds from Vietnamese Garcinia schomburgkiana fruits: in vitro and in silico studies” (RSC Advances, 2023).

For experiment [1], the system named is alpha-glucosidase. The conditions noted are these: cited from earlier work; for IC50: read-out: Alpha-glucosidase inhibition IC50.
Experiment [2] deals with alpha-glucosidase. Kind of experiment: Kinetic study of alpha-glucosidase inhibition (Lineweaver–Burk plots). In kind it is biochemical. The method, then: To better understand the kinetic parameters of alpha-glucosidase inhibition by 2, the enzyme activity was assessed by varying substrate concentrations in the absence or presence of 2. The inhibition type was identified through Lineweaver–Burk plots (Fig. 3A), where the reciprocal of the reaction rate (1/V) was graphed against the reciprocal of substrate concentrations (1/[S]). This approach allowed monitoring the effect of the inhibitor on both Km and Vmax. […] The inhibition constant for the inhibitor binding with free enzyme (Ki) was determined from a plot of the slope (Km/Vm) versus the inhibitor concentration (Fig. 3B).
The kinetics of 2 against alpha-glucosidase was conducted by varying the concentration of p-NPG substrate in the absence or presence of tested compound at different concentrations (0, 30.0, and 60.0 μM). The Lineweaver–Burk plots were used to determine the inhibition type. In addition, the inhibition constant Ki is an indication of the potency of an inhibitor and was determined from secondary plots of 1/V vs. [I].[35] The Lineweaver–Burk double-reciprocal plot (1/V vs. 1/[S]) was employed to discern the Vmax, […], and mode of inhibition (Fig. 10). [drawing 1]

Another experiment has as its target yeast alpha-glucosidase. The experiment in a line: Alpha-glucosidase inhibition assay. The experiment is classed as biochemical. The conditions noted are these: isolated compounds. As to the method:
Extracts and fractions EA1–EA16 were evaluated for the alpha-glucosidase inhibition to choose the fraction for further analysis. The isolation of 1–11 was described in Scheme 1 using silica gel CC with various solvent systems.
Evaluation of the inhibitory activity of 1–11 against yeast alpha-glucosidase followed a previous procedure.[34]

Experiment [3] addresses protein tyrosine phosphatase 1B. Set-up: method as in PMID 34111550. To be noted: isolated from H. forrestii; read-out: PTP1B inhibition IC50; cited from earlier work.

Entries after “also recorded” stand apart in the source; their conditions may differ. Where two headings read alike, the source gives them in different places.

As for `C[C@H]1O[C@H](O[C@H]2[C@H](O)[C@@H](O)[C@@H](O[C@H]3[C@H](O)[C@@H](O)C(O)O[C@@H]3CO)O[C@@H]2CO)[C@H](O)[C@@H](O)[C@@H]1N[C@H]1C=C(CO)[C@@H](O)[C@H](O)[C@H]1O` (stereo partly shown) [acarbose], in the experiment with alpha-glucosidase [1] (positive control, previous work), the Inhibition type result was “competitive inhibitor”.
With `CC(C)=CCC/C(C)=C/C[C@H]1C[C@]2(CC=C(C)C)C(=O)[C@@](CC=C(C)C)(C(=O)C(C(=O)c3ccc(O)c(O)c3)=C2O)[C@]1(C)CCC=C(C)C` [Compound 2, guttiferone I], the IC50 (as a rule, the concentration that gives 50% inhibition) at alpha-glucosidase [1] (compound from G. cowa) was 13.1 µM; against yeast alpha-glucosidase, 29.4 ± 1.2 µM. In addition, the Inhibition type result with alpha-glucosidase [2] (Lineweaver–Burk plots, Vmax constant, Km increased) is “competitive inhibitor; also recorded: competitive type”. Also, at alpha-glucosidase [2] (from plot of slope (Km/Vm) versus inhibitor concentration, p-NPG substrate, read-out: Inhibition constant Ki), the Ki (commonly a dissociation constant, usually derived from enzyme kinetics or from competition with a known ligand) was found to be 69.2 µM.
For `COc1cc2oc3cc(O)c(OC)c(CC=C(C)C)c3c(=O)c2c(O)c1CC=C(C)C` [Compound 7, β-mangostin], at yeast alpha-glucosidase, the IC50 was above 200 µM.
On the same count and under the same terms, then `CC(C)=CCCC(C)=CCC12CC3CC4C(C)(C)CCC4(C1=O)C(=O)C(C(=O)c1ccccc1)(C2=O)C3(C)C` (stereo not shown) [Compound 4, hypersampsone I], with 131 ± 4.6 µM; and `COc1c(O)cc2oc3cc(O)c(CC=C(C)C)c(O)c3c(=O)c2c1CC=C(C)C` [Compound 8, α-mangostin], with above 200 µM.
As for `CC(C)=CCC/C(C)=C/C[C@]12C[C@@H]3C[C@H]4C(C)(C)CC[C@@]4(C1=O)C(=O)[C@](C(=O)c1ccccc1)(C2=O)C3(C)C` [Compound 6, sampsonione H], the IC50 in experiment [3] was 6.63 ± 2.4 µM; against yeast alpha-glucosidase, 56.9 ± 1.9 µM.
Regarding `CC(C)=CCCC1(C)C(CC=C(C)C)CC2(CC=C(C)C)C(=O)C(C(=O)c3ccccc3)=C(O)C1C2=O` (stereo not shown) [Guttiferone Q], the IC50 on alpha-glucosidase [1] is 118 µM.
guttiferone K [Compound 3]: half-maximal inhibition against yeast alpha-glucosidase (IC50) was put at 16.2 ± 0.7 µM.
On the same count and under the same terms, the value for `COc1c(O)cc2oc3cc(O)c4c(c3c(=O)c2c1CC=C(C)C)OC(C)(C)C(O)C4` (stereo not shown) [Compound 11, 11-hydroxy-1-isomangostin] was above 200 µM; that for `C=C(C)C1CC23C(=O)C4(CC=C(C)CCC=C(C)C)CC(CC2C1(C)C)C(C)(C)C(C(=O)c1ccccc1)(C4=O)C3=O` (stereo not shown) [Compound 5, sampsonione D] was 116 ± 2.7 µM; that for `CC(C)=CCCC1(C)C(CC=C(C)C)CC2(CC=C(C)C)C(=O)C(C(=O)c3ccccc3)=C(O)C1C2=O` (stereo not drawn) [Compound 1, epi-guttiferone Q] was 60.7 ± 3.6 µM.
With `CC(C)=CCCC1(C)C(CC=C(C)C)CC23CCC(C)(C)OC2=C(C(=O)c2ccc(O)c(O)c2)C(=O)C1(CC=C(C)C)C3=O` (stereo not shown) [schomburgkianone I], the IC50 at alpha-glucosidase [1] (isolated from Thai G. schomburgkiana sources) was 21.2 µM.
